Results on one compound are retold here after patent US20250136581A1, “SUBSTITUTED TRIAZOLE DERIVATIVE, PREPARATION METHOD THEREFOR, PHARMACEUTICAL COMPOSITION THEREOF, AND USE THEREOF” (SHANGHAI SIMR BIOTECHNOLOGY CO., LTD., priority 2021, published 2025).

One data set has as its system human MDR1 P-gp. The experiment in a line: MDCKII-MDR1 permeability. The data set is classed as in vitro ADME, canine. Particulars: dog. The method, then:
Brain permeability of compounds was assessed by measuring compound efflux in Madin-Darby canine kidney-II (MDCKII) cells transfected with the human MDR1 gene (Drug metabolism and disposition, 2008, 36(2), 268-275).
The active transport mechanism was mediated by uptake and efflux transporters expressed on MDCKII-MDR1 cells, primarily by overexpressed human MDR1 P-gp.
MDCKII-MDR1 cells were seeded on the polycarbonate microporous membrane of Transwell™ at a density of (0.85 to 5.0)×10^6/cm^2, and used for experiments when the cells reached complete confluence (3 to 5 d). […] At the beginning and end of the experiment, samples were collected from the transport solution side. After incubation for a certain period of time (1.5 hours), samples were also collected from the buffer side, and the concentration was determined by HPLC-MS/MS or scintillation counting.

Data set [1] in a line: Rat pharmacokinetic experiment. The data set is classed as in vivo. Particulars: rat, po, 3 mg/kg. On the procedure: The maximum plasma concentration (Cmax) in the rat pharmacokinetic experiment was used to evaluate the absorption of the compounds in rat in vivo. The experimental compound was dissolved and then orally administered by gavage (p.o.) to male SD rats. The rats were fasted overnight before drug administration, and blood was collected via venipuncture at 0.25, 0.5, 1, 2, 4, and 7 hours post dose. Approximately 100 μL blood was collected for each sample; at the same time, the whole brain was taken and homogenized with 3 times the amount of PBS for analysis. The […] method was used to determine drug concentrations in plasma and brain tissue, and the proportion of compounds entering the brain (B/P) was calculated based on the AUC of the compound. Pharmacokinetic parameters were calculated using Phoenix WinNonlin 7.0. The administration vehicle was 5% CMC-Na aqueous solution.

Data set [2] concerns the target α5-GABAA receptor (α5, β3, γ2 subunits) (Homo sapiens (Human), UniProt P18507+P31644). Put plainly: Whole cell patch clamp, inverse agonist efficacy in HEK293 cells expressing α5-GABAA receptor. Format: cell-based. Particulars: HEK293, drug 100 nM, GABA 0.05 μM, −60 mV; read-out: Compound inverse agonist efficacy %. A digest of the protocol: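 Compounds screened at 100 nM against current induced by 0.05 μM GABA in monoclonal HEK293 cells stably expressing α5β3γ2 GABAA receptors. Recording by whole-cell voltage clamp (−60 mV, pH 7.4 bath, CsCl pipette); efficacy calculated from leak-corrected currents before and after drug.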
A general note: In patch-clamp work, channel activity is measured electrically.

Each structure is given as a SMILES string.

α5-GABAA receptor (α5, β3, γ2 subunits), sequence (P31644 32-462): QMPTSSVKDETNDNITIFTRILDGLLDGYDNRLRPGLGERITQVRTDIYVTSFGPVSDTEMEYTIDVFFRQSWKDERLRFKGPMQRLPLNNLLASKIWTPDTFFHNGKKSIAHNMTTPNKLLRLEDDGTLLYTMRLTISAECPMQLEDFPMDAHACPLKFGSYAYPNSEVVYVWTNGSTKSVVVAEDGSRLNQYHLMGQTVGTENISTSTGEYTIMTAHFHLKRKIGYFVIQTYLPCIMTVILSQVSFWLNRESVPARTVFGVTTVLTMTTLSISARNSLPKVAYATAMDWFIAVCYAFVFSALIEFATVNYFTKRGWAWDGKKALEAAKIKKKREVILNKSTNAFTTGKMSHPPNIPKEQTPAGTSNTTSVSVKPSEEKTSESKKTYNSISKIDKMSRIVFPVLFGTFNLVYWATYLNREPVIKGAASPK
α5-GABAA receptor (α5, β3, γ2 subunits), sequence (P28472 26-473 partner): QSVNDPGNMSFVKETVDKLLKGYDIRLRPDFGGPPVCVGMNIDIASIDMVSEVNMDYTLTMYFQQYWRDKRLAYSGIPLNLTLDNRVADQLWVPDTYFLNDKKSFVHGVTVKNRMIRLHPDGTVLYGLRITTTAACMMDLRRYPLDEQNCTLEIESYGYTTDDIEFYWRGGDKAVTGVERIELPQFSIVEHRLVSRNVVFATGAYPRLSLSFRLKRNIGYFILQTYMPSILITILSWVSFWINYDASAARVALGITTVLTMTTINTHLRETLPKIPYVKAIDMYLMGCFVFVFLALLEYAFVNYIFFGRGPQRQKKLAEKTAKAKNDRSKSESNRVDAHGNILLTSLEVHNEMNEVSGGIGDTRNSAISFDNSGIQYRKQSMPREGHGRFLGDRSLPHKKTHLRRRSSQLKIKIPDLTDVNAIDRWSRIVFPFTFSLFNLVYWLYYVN
α5-GABAA receptor (α5, β3, γ2 subunits), sequence (P18507 other isoform, or with tags, fused parts or gaps): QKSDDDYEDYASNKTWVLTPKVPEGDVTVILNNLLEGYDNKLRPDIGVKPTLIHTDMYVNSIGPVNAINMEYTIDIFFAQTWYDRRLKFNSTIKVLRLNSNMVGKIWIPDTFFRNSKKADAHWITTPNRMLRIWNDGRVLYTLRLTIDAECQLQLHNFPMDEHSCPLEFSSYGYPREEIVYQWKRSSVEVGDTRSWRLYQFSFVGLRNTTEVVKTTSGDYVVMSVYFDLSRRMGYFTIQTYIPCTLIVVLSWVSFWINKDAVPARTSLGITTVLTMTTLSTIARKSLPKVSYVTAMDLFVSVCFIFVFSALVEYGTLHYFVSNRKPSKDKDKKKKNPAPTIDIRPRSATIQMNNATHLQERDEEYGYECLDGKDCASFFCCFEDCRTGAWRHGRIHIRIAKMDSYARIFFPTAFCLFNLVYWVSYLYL

By Papp A→B is commonly meant how fast a substance crosses the layer from the apical side. Low values mean slow passage, high ones fast passage. As a reminder, the Cmax is the highest concentration seen after dosing. `Cc1nnn(-c2ccc(C(F)F)cc2)c1COc1ccc(N2CC(=O)NC(C)C2)nn1` (centres unmarked) [Example 6, 4-(6-((1-(4-(Difluoromethyl)phenyl)-4-methyl-1H-1,2,3-triazol-5-yl)methoxy)pyridazin-3-yl)-6-methylpiperazin-2-one]: in the data set on human MDR1 P-gp (MDCK-MDR1, pH 7.4, Papp (B-A)/Papp (A-B), read-out: Efflux ratio (ER)), the efflux ratio at 1.5 h was found to be 7.52. For the same compound, in the data set with human MDR1 P-gp (MDCK-MDR1, pH 7.4, 37° C., 1.5 hours), the Papp A→B at 1.5 h came to 41.6 nm/s. For the same compound, the Kp in data set [1] (male, SD, brain / plasma, read-out: B/P (proportion of compounds entering the brain)) came to 0.0015. This compound also showed a Cmax in data set [1] (plasma, male SD rats) of 1.51 µg/mL. Moreover, the inhibition at 0.1 µM in data set [2] was 42.5%.
